The subject of this assay is KRAS G12V dependent lung adenocarcinoma cell line, NCI-H441. Briefly: Cellular pERK (Thr202/Tyr204) FRET/HTRF assay. The format is cell-based. An excerpt: “Ras” refers to a protein in the Ras superfamily of small GTPases, such as in the Ras subfamily. […] The Ras proteins play a critical role in the regulation of cell behaviors, including proliferation, differentiation, and survival. […] KRAS G12V, G12D, and G12S variants are common in human cancers and Ras inhibitors binding in or near the Switch II pocket may provide mutant binding selectivity. RAS mutations are known to be often associated with pancreatic, colorectal and non-small-cell lung carcinomas (Lone, A. M. et al. J. Am. Chem. Soc. 2011,133, 11665-74, which is entirely incorporated herein by reference; Dillon, M. B.; Bachovchin, D. A.; Brown, S. J.; Finn, M. G.; Rosen, H.; Cravatt, B. F.; Mowen, K. A. ACS Chem. Biol. 2012, 7, 1198-204, which is entirely incorporated herein by reference; Bachovchin, D. A.; Brown, S. J.; Rosen, H.; Cravatt, B. F. Nat. Biotechnol. 2009, 27, 387-94, Ostrem, J. M.; Peters, U.; Sos, M. L.; Wells, J. A.; Shokat, K. M. Nature 2013, 503, 548-551. Ryan M. B. and Corcoran R. B, Nat. Rev Clin Onco. 2018, 11, 709-720.). Ras proteins are key members in the Ras/Raf/Mitogen-activated protein kinase (MAPK) signaling pathway. This pathway regulates a wide variety of cellular processes, including proliferation, differentiation, apoptosis, and stress responses. One way to measure the impact of an inhibitor of Ras proteins is to measure downstream phosphorylation of proteins in the MAPK pathway. The MAPK pathway includes extracellular signal-regulated kinases named ERK1 and ERK2, which are serine-threonine kinases that regulate cellular signaling under both normal and oncogenic conditions. ERK expression and hyperactivation via phosphorylation plays a major role in cancer progression and are downstream of Ras proteins. The assay used for measuring the downstream impact of Ras inhibition is the use of a highly sensitive cell-based readout of ERK phosphorylation (pERK) specifically on Threonine (Thr) 202 and Tyrosine (Tyr) 204 in a KRAS G12V dependent lung adenocarcinoma cell line, NCI-H441 (ATCC Cat #HTB-174). The assay described herein is suitable for assessing inhibition of Ras and can be tailored for any of the predominant oncogenic mutations in any isoform of Ras (e.g., KRAS, HRAS, and NRAS) by changing the cell line.
pERK was measured using an advanced pERK assay designed for the robust and highly sensitive quantification of ERK phosphorylation on Thr202/Tyr204. This assay is intended for the simple, rapid, and direct detection of endogenous levels of ERK1/2 in cells, but only when ERK is phosphorylated at Thr202 and Tyr204 (Perkin Elmer Catalog #64AERPEH). pERK was detected in a FRET based sandwich assay format using 2 different specific antibodies, one labelled with Eu3+-Cryptate (donor) and the second with d2 (acceptor). When the dyes are in close proximity, the excitation of the donor with a light source (laser or flash lamp) triggers a Fluorescence Resonance Energy Transfer (FRET) towards the acceptor, which in turn fluoresces at a specific wavelength (665 nm). The specific signal modulates positively in proportion to p-ERK1/2 (Thr202/Tyr204). The simple mix-and-read protocol eliminates all wash steps for faster analysis and high-quality output. Briefly, cells were diluted to the desired concentration per well based on a growth curve showing ˜75% confluence within a 24-hour time period at no less than 95% viability. Cell suspension (24 μL) were added into each well of 384-well culture plate and maintained in 37° C. 5% CO2 incubator overnight prior to assay. All compounds were transferred to stock plates using TECAN (EVO200) liquid handler using DMSO as the solubilizing and dilution agent. Test compounds were transferred onto adherent cells using an Echo655 liquid handler. DMSO was employed as negative control. Cells were incubated with test compounds for 1 hr in a 37° C., 5% CO2 incubator following compound addition. […]

Setting [1] is: cellular pERK (Thr202/Tyr204) HTRF, NCI-H441 cells.

A word on the IC50: it is the midpoint of a concentration-inhibition curve.

`[2H]C([2H])(Oc1nc(N2CCOC[C@H]3[C@H](F)[C@H]32)c2cc(C#N)c(-c3cc(N)cc4ccc(F)c(C#C)c34)c(F)c2n1)[C@@]12CCCN1C[C@H](F)C2` (atropisomer, axis not shown; (aS)) [Example 360, (R)-7-(3-amino-8-ethynyl-7-fluoronaphthalen-1-yl)-8-fluoro-4-((1S,7S,8S)-8-fluoro-5-oxa-2-azabicyclo[5.1.0]octan-2-yl)-2-(((2R,7aS)-2-fluorotetrahydro-1H-pyrrolizin-7a(5H)-yl)methoxy-d2)quinazoline-6-carbonitrile] showed an IC50 under setting [1] of 500 to 10000 nM.
For the compound `[2H]C([2H])(Oc1nc(N2CCOC[C@H]3[C@H](F)[C@H]32)c2cc(Cl)c(-c3cc(N)cc4ccc(F)c(C#C)c34)c(F)c2n1)[C@@]12CCCN1C[C@H](F)C2` (atropisomer, axis not shown; (aS)) [Example 361, 4-((S)-6-chloro-8-fluoro-4-((1S,7S,8S)-8-fluoro-5-oxa-2-azabicyclo[5.1.0]octan-2-yl)-2-(((2R,7aS)-2-fluorotetrahydro-1H-pyrrolizin-7a(5H)-yl)methoxy-d2)quinazolin-7-yl)-5-ethynyl-6-fluoronaphthalen-2-amine], under setting [1], the IC50 was in the range of 500 to 10000 nM.
As for `[2H]C([2H])(Oc1nc(N2CCOC[C@H]3[C@H](F)[C@H]32)c2cc(C(F)(F)F)c(-c3ccc(F)c4sc(N)c(C#N)c34)c(F)c2n1)[C@@]12CCCN1C[C@H](F)C2` (atropisomer, axis not shown; (aS)) [Example 365, 2-amino-7-fluoro-4-((S)-8-fluoro-4-((1S,7S,8S)-8-fluoro-5-oxa-2-azabicyclo[5.1.0]octan-2-yl)-2-(((2R,7aS)-2-fluorotetrahydro-1H-pyrrolizin-7a(5H)-yl)methoxy-d2)-6-(trifluoromethyl)quinazolin-7-yl)benzo[b]thiophene-3-carbonitrile], under “Homo sapiens, NCI-H441, cellular pERK (Thr202/Tyr204) HTRF, NCI-H441 cells”, the IC50 is under 50 nM.
Take `[2H]C([2H])(Oc1nc(N2CCOC[C@H]3[C@H](F)[C@H]32)c2cc(C(F)(F)F)c(-c3ccc(F)c4sc(N)c(C#N)c34)c(F)c2n1)[C@@]12CCCN1C[C@H](F)C2` (atropisomer, axis not shown; (aS)) [Example 390, 2-amino-7-fluoro-4-((R)-8-fluoro-4-((1S,7S,8S)-8-fluoro-5-oxa-2-azabicyclo[5.1.0]octan-2-yl)-2-(((2R,7aS)-2-fluorotetrahydro-1H-pyrrolizin-7a(5H)-yl)methoxy-d2)-6-(trifluoromethyl)quinazolin-7-yl)benzo[b]thiophene-3-carbonitrile]: the IC50 under setting [1] is under 50 nM.
Still for that read-out and setting: the same measure for `[2H]C([2H])(Oc1nc(N2CCOC[C@H]3[C@H](F)[C@H]32)c2cc(F)c(-c3cc(N)cc4ccc(F)c(C#C)c34)c(F)c2n1)[C@@]12CCCN1C[C@H](F)C2` (atropisomer, axis not shown; (aS)) [Example 391, 4-((R)-6,8-difluoro-4-((1S,7S,8S)-8-fluoro-5-oxa-2-azabicyclo[5.1.0]octan-2-yl)-2-(((2R,7aS)-2-fluorotetrahydro-1H-pyrrolizin-7a(5H)-yl)methoxy-d2)quinazolin-7-yl)-5-ethynyl-6-fluoronaphthalen-2-amine]: under 50 nM; for `[2H]C([2H])(Oc1nc(N2CCOC[C@H]3[C@H](F)[C@H]32)c2cc(F)c(-c3cc(N)cc4ccc(F)c(C#C)c34)c(F)c2n1)[C@@]12CCCN1C[C@H](F)C2` (atropisomer, axis not shown; (aS)) [Example 400, 4-((S)-6,8-difluoro-4-((1S,7S,8S)-8-fluoro-5-oxa-2-azabicyclo[5.1.0]octan-2-yl)-2-(((2R,7aS)-2-fluorotetrahydro-1H-pyrrolizin-7a(5H)-yl)methoxy-d2)quinazolin-7-yl)-5-ethynyl-6-fluoronaphthalen-2-amine]: 500 to 10000 nM; for `[2H]C([2H])(Oc1nc(N2CCOC[C@H]3[C@H](Cl)[C@H]32)c2cc(C(F)(F)F)c(-c3ccc(F)c4sc(N)c(C#N)c34)c(F)c2n1)[C@@]12CCCN1C[C@H](F)C2` (atropisomer, axis not shown; (aS)) [Example 418, 2-amino-4-((R)-4-((1S,7S,8S)-8-chloro-5-oxa-2-azabicyclo[5.1.0]octan-2-yl)-8-fluoro-2-(((2R,7aS)-2-fluorotetrahydro-1H-pyrrolizin-7a(5H)-yl)methoxy-d2)-6-(trifluoromethyl)quinazolin-7-yl)-7-fluorobenzo[b]thiophene-3-carbonitrile]: 500 to 10000 nM.
With `[2H]C([2H])(Oc1nc(N2CCOC[C@@H]3[C@@H](Cl)[C@@H]32)c2cc(C(F)(F)F)c(-c3ccc(F)c4sc(N)c(C#N)c34)c(F)c2n1)[C@@]12CCCN1C[C@H](F)C2` (atropisomer, axis not shown; (aS)) [Example 419, 2-amino-4-((S)-4-((1R,7R,8R)-8-chloro-5-oxa-2-azabicyclo[5.1.0]octan-2-yl)-8-fluoro-2-(((2R,7aS)-2-fluorotetrahydro-1H-pyrrolizin-7a(5H)-yl)methoxy-d2)-6-(trifluoromethyl)quinazolin-7-yl)-7-fluorobenzo[b]thiophene-3-carbonitrile], the IC50 under setting [1] was in the range of 50 to 500 nM.
Under setting [1], `[2H]C([2H])(Oc1nc(N2CCOC[C@H]3[C@H](Cl)[C@H]32)c2cc(C(F)(F)F)c(-c3ccc(F)c4sc(N)c(C#N)c34)c(F)c2n1)[C@@]12CCCN1C[C@H](F)C2` (atropisomer, axis not shown; (aS)) [Example 420, 2-amino-4-((S)-4-((1S,7S,8S)-8-chloro-5-oxa-2-azabicyclo[5.1.0]octan-2-yl)-8-fluoro-2-(((2R,7aS)-2-fluorotetrahydro-1H-pyrrolizin-7a(5H)-yl)methoxy-d2)-6-(trifluoromethyl)quinazolin-7-yl)-7-fluorobenzo[b]thiophene-3-carbonitrile] showed an IC50 of under 50 nM.
On the same count and under the same terms, the same measure for `[2H]C([2H])(Oc1nc(N2CCOC[C@@H]3[C@@H](Cl)[C@@H]32)c2cc(C(F)(F)F)c(-c3ccc(F)c4sc(N)c(C#N)c34)c(F)c2n1)[C@@]12CCCN1C[C@H](F)C2` (atropisomer, axis not shown; (aS)) [Example 421, 2-amino-4-((R)-4-((1R,7R,8R)-8-chloro-5-oxa-2-azabicyclo[5.1.0]octan-2-yl)-8-fluoro-2-(((2R,7aS)-2-fluorotetrahydro-1H-pyrrolizin-7a(5H)-yl)methoxy-d2)-6-(trifluoromethyl)quinazolin-7-yl)-7-fluorobenzo[b]thiophene-3-carbonitrile]: 500 to 10000 nM.
On to `[2H]C([2H])(Oc1nc(N2CCOC[C@H]3[C@H](F)[C@H]32)c2cc(F)c(-c3cc(N)cc4ccc(F)c(C#C)c34)c(C)c2n1)[C@@]12CCCN1C[C@H](F)C2` (atropisomer, axis not shown; (aS)) [Example 434, 5-Ethynyl-6-fluoro-4-((R)-6-fluoro-4-((1S,7S,8S)-8-fluoro-5-oxa-2-azabicyclo[5.1.0]octan-2-yl)-2-(((2R,7aS)-2-fluorotetrahydro-1H-pyrrolizin-7a(5H)-yl)methoxy-d2)-8-methylquinazolin-7-yl)naphthalen-2-amine], for which the IC50 (cellular pERK HTRF, NCI-H441 (KRAS G12V) cells) lay within 500 to 10000 nM.

(Values after patent US20250282799A1, “SUBSTITUTED PYRIDO[4,3-d]PYRIMIDINES AS KRAS MODULATORS” (Alterome Therapeutics, Inc., priority 2023, published 2025).)
